Test results as given in patent publication US12528761B2, “Thyromimetics” (Autobahn Therapeutics, Inc., priority 2020, dated 2026).

Target: T1, recombinant human FAAH (rhFAAH) (Homo sapiens, UniProt O00519)
T1 construct: purchased Cayman Chemical (Ann Arbor, MI, USA)
T1 sequence (O00519 1-579): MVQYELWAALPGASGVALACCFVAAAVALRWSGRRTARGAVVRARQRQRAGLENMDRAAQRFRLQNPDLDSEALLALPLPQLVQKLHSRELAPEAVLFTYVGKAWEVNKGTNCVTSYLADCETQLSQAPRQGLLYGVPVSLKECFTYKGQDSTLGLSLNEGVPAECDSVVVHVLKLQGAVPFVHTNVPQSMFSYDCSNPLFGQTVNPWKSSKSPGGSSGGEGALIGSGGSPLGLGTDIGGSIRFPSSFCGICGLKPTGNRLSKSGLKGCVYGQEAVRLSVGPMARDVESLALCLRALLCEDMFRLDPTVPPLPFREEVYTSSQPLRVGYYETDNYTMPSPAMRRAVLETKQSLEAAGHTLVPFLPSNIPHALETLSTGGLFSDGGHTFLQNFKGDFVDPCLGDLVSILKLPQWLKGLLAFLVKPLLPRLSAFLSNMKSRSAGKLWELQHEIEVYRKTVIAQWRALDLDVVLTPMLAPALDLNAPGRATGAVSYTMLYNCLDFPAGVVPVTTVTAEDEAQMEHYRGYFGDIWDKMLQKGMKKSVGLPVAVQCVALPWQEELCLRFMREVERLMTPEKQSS
Assay: FAAH substrate evaluation (formation of acid metabolite, LC-MS/MS)
Format: biochemical
Set-up: key: A: ke is equal to or less than 1.0; B: ke is greater than 1.0 and less than or equal to 2.5; C: ke is greater than 2.5; NC: no conversion
Settings: 0.5 ng/μL rhFAAH, 1 μM test compound, pH 8.0, room temperature, 0-60 minutes
Outline: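 Test compound at 1 μM incubated at room temperature with 0.5 ng/μL rhFAAH, 0.1% BSA in Tris-EDTA pH 8.0; parallel incubations with 1 μM PF-3845 inhibitor. Samples quenched at 0-60 min; acid metabolite quantified by LC-MS/MS, ke taken as slope of metabolite concentration versus time.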

SMILES | ke, observed rate constant for the acid metabolite formation
CNC(=O)CSc1cc(Cl)c(Cc2ccc(O)c(C(C)C)c2F)c(Cl)c1 [Compound 188, 2-((3,5-dichloro-4-(2-fluoro-4-hydroxy-3-isopropylbenzyl)phenyl)thio)-N-methylacetamide] | B (ke is greater than 1.0 and less than or equal to 2.5)
CNC(=O)CCc1cc(Cl)c(Cc2ccc(O)c(C(C)C)c2F)c(Cl)c1 [Compound 41, 3-(3,5-dichloro-4-(2-fluoro-4-hydroxy-3-isopropylbenzyl)phenyl)-N-methylpropanamide] | A (ke is equal to or less than 1.0)
C=C(Cc1cc(Cl)c(Cc2ccc(O)c(C(C)C)c2F)c(Cl)c1)C(=O)NC [Compound 177, 2-(3,5-dichloro-4-(2-fluoro-4-hydroxy-3-isopropylbenzyl)benzyl)-N-methylacrylamide] | NC
CON(C)C(=O)/C(C)=C/c1cc(Cl)c(Cc2ccc(O)c(C(C)C)c2F)c(Cl)c1 [Compound 122, (E)-3-(3,5-dichloro-4-(2-fluoro-4-hydroxy-3-isopropylbenzyl)phenyl)-N-methoxy-N,2-dimethylacrylamide] | A (ke is equal to or less than 1.0)
CNC(=O)CNc1cc(Cl)c(Cc2ccc(O)c(C(C)C)c2F)c(Cl)c1F [Compound 79, 2-((3,5-dichloro-2-fluoro-4-(2-fluoro-4-hydroxy-3-isopropylbenzyl)phenyl)amino)-N-methylacetamide] | A (ke is equal to or less than 1.0)
CNC(=O)CSc1cc(Cl)c(Cc2ccc(O)c(C(C)C)c2)c(Cl)c1F [Compound 190, 2-((3,5-dichloro-2-fluoro-4-(4-hydroxy-3-isopropylbenzyl)phenyl)thio)-N-methylacetamide] | B (ke is greater than 1.0 and less than or equal to 2.5)
Cc1cc(CSCC(=O)NC2CCCCC2)cc(Cl)c1Cc1ccc(O)c(C(C)C)c1 [Compound 131, 2-((3-chloro-4-(4-hydroxy-3-isopropylbenzyl)-5-methylbenzyl)thio)-N-cyclohexylacetamide] | NC
COc1ccc(NC(=O)CNc2cc(Cl)c(Cc3ccc(O)c(C(C)C)c3F)c(Cl)c2F)cn1 [Compound 158, 2-((3,5-dichloro-2-fluoro-4-(2-fluoro-4-hydroxy-3-isopropylbenzyl)phenyl)amino)-N-(6-methoxypyridin-3-yl)acetamide] | B (ke is greater than 1.0 and less than or equal to 2.5)
CC(C)c1cc(Cc2c(Cl)cc(SCC(=O)Nc3ccnnc3)cc2Cl)ccc1O [Compound 173, 2-((3,5-dichloro-4-(4-hydroxy-3-isopropylbenzyl)phenyl)thio)-N-(pyridazin-4-yl)acetamide] | C (ke is greater than 2.5)

Now from value to compound:

ke, observed rate constant for the acid metabolite formation | SMILES
A (ke is equal to or less than 1.0) | Cc1cc(CSCC(=O)N(C)C)cc(Cl)c1Cc1ccc(O)c(C(C)C)c1 [Compound 231, 2-((3-chloro-4-(4-hydroxy-3-isopropylbenzyl)-5-methylbenzyl)thio)-N,N-dimethylacetamide]
NC | CNC(=O)CSCc1cc(Cl)c(Cc2ccc(O)c(C(C)C)c2)c(Cl)c1 [Compound 193, 2-((3,5-dichloro-4-(4-hydroxy-3-isopropylbenzyl)benzyl)thio)-N-methylacetamide]
NC | CC(C)c1cc(Cc2c(Cl)cc(CSCC(=O)N(C)C)cc2Cl)ccc1O [Compound 191, 2-((3,5-dichloro-4-(4-hydroxy-3-isopropylbenzyl)benzyl)thio)-N,N-dimethylacetamide]
NC | CC(C)c1cc(Cc2c(Cl)cc(SCC(=O)N(C)C)cc2Cl)ccc1O [Compound 194, 2-((3,5-dichloro-4-(4-hydroxy-3-isopropylbenzyl)phenyl)thio)-N,N-dimethylacetamide]
